Test results reported in patent US7960394B2, “Quinazoline derivative” (Banyu Pharmaceutical Co., Ltd., priority 2004, dated 2011).
Where two headings read alike, the source gives them in different places.

Key:
[1] = biological target: T1, human histamine-3 receptor (Homo sapiens, UniProt Q9Y5N1); test: Histamine analogue-binding inhibition test ([3H]N-α-methylhistamine, membrane specimen); details: result in words
T1 construct: expressed in transfected cells; host or cells: HEK293 and CHO-K1 (American Type Culture Collection)
Protocol: A membrane specimen prepared from the cells having expressed a histamine-3 receptor was incubated in an assay buffer (50 mM Tris buffer, pH 7.4) along with a test compound and 20,000 cpm [^3H]N-α-methylhistamine (by NEN) therein, at 25° C. for 2 hours, and then filtered through a glass filter GF/C. After washed with 50 mM Tris buffer (pH 7.4), the radioactivity on the glass filter was determined. The non-specific binding was determined in the presence of 10 μM thioperamide (by Sigma), and the 50% inhibitory concentration (IC50) of the test compound to the specific N-α-methylhistamine binding was calculated [see Molecular Pharmacology, Vol. 55, p.

[2] = Brain/cerebrospinal fluid migration test; assay type: in vivo, SD male rats; details: rat; for concentration at 30 min / concentration at 2 h: male, SD
Protocol: A test compound was orally or intravenously administered to SD male rats (7 to 10 week-age, 200 to 400 g). While they were anesthetized with ether for a predetermined period of time, the whole blood was collected from them via their abdominal aorta, using a heparin-processed syringe. Then, their occipital skin was cut open, and a dental 30 G needle was stuck into the cervical vertebrae and further into the subarachnoid cavity. Via the tube connected to the dental 30 G needle, from 50 to 100 μL of the cerebrospinal fluid was collected in a 1 mL-syringe, and then the brain was taken out. The blood sample was centrifuged (4° C., 6000 rpm, 10 min), and the resulting plasma was stirred with ethanol of three times (including an internal standard substance) added thereto. The brain sample was homogenized with 2 mL of water added thereto, and a part of it was taken out and stirred with ethanol of three times (including an internal standard substance) added thereto. The cerebrospinal fluid was homogenized with 3 times its volume of ethanol (including an internal standard substance) added thereto. The above samples were left at −20° C. for 20 minutes, then centrifuged (4° C., 12,000 g, 10 min), and the supernatant was analyzed through LC/MS/MS. According to a relative calibration curve method, the concentration of the test compound in the plasma, in the brain and in the cerebrospinal fluid was determined.

T1 sequence (Q9Y5N1 whole entry): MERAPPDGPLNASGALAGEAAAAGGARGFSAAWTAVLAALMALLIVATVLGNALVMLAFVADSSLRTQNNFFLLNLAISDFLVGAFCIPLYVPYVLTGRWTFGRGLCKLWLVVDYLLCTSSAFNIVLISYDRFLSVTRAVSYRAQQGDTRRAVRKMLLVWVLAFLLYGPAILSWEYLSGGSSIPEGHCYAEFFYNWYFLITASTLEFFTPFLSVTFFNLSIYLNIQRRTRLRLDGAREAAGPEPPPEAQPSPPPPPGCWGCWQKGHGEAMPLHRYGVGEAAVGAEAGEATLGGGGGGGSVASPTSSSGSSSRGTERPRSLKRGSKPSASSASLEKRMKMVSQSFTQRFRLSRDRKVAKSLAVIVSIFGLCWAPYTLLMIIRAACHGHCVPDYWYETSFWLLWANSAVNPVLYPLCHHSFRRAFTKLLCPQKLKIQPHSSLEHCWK

## Cn1c(-c2ccc(OCCCN3CCCC3)cc2)nc2ccccc2c1=O [Example 16, 3-Methyl-2-[4-(3-pyrrolidin-1-ylpropoxy)phenyl]-4(3H)-quinazoline]
[1]
  inhibition of the binding of N-alpha-methylhistamine (histamine analogue) to histamine-H3 receptor: strongly inhibited
[2]; cerebrospinal fluid, intravenous administration 3 mg/kg, in 30 minutes, read-out: concentration in the cerebrospinal fluid
  concentration at 30 min: 134 nM
[2]; plasma, intravenous administration 3 mg/kg, in 30 minutes, read-out: concentration in the plasma
  concentration at 30 min: 1360 nM
[2]; intravenous administration 3 mg/kg, in 30 minutes
  concentration in the brain: 2.22 nmol/g

## COc1ccnc2c(=O)n(C)c(-c3ccc(OC4CCN(C5CCC5)CC4)cc3)nc12 [Example 59, 2-{4-[(1-cyclobutylpiperidin-4-yl)oxy]phenyl}-8-methoxy-3-methylpyrido[3,2-d]pyrimidin-4(3H)-one]
other
  melting point: 182.2 to 205.2 °C

## Cn1c(-c2ccc(OC3CCN(C4CC4)CC3)cc2)nc2ccccc2c1=O [Example 89, 3-Methyl-2-[4-(1-cyclopropyl-4-piperidinyloxy)-phenyl]-4(3H)-quinazolinone]
[2]; cerebrospinal fluid, oral administration 10 mg/kg, in 2 hours, read-out: concentration in the cerebrospinal fluid
  concentration at 2 h: 27 nM
[2]; plasma, oral administration 10 mg/kg, in 2 hours, read-out: concentration in the plasma
  concentration at 2 h: 700 nM
[2]; oral administration 10 mg/kg, in 2 hours
  concentration in the brain: 1.45 nmol/g
